Experiments:
[1] = RP TLC on unimpregnated RP-2 control plate; format: physicochemical; details: Rf value from unimpregnated RP plate (control); mobile phase pH 7.4
[2] = biological target: T1, bovine serum albumin BSA (Bos taurus, UniProt P02769); assay: NP TLC on silica gel plates impregnated with bovine serum albumin; format: in vitro ADME; details: for NP/C: Rf from BSA-modified NP plate / Rf from clear one (control)
T1 construct: purchased Sigma Aldrich

[3] = set-up: method as in earlier work; details: code describing the acid-base properties; source Chembl; cited from earlier work
[4] = biological target: T2, human serum albumin HSA (Homo sapiens, UniProt P02768); assay: HPLC on immobilized human serum albumin column (HPLC-HSA); format: in vitro ADME; details: for log kHSA: logarithm of retention factor, mobile phase pH 7.4; for kHSA: retention factor, acetate buffer pH 7.4/acetonitrile/methanol 85:10:5
T2 construct: 4 × 10 mm
T2 sequence (P02768 25-609): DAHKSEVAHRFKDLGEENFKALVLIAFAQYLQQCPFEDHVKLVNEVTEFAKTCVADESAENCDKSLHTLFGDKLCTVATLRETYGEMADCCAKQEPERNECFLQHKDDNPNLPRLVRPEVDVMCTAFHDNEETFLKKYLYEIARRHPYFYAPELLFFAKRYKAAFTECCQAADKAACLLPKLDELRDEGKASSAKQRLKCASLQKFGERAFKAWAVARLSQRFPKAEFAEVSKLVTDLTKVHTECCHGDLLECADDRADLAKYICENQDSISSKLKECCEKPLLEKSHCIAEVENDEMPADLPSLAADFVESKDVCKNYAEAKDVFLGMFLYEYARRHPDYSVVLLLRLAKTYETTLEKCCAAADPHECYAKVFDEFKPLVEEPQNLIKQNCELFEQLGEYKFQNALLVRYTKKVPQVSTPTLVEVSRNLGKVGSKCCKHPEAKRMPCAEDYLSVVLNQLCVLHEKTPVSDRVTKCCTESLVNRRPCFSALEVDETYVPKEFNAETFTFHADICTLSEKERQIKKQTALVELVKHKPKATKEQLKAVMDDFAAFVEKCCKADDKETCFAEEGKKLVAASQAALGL

[5] = NP TLC on unimpregnated control plate; format: physicochemical; details: Rf value from unimpregnated NP plate (control); mobile phase pH 7.4
[6] = biological target: T1, bovine serum albumin BSA; assay: RP TLC on silanized RP-2 plates impregnated with bovine serum albumin; format: in vitro ADME; details: for RP/C: Rf from BSA-modified RP-2 plate / Rf from clear one (control); for RP: Rf value from RP plate impregnated with 2 mg/mL BSA solution, mobile phase pH 7.4
[7] = HPLC on immobilized artificial membrane column (HPLC-IAM); format: physicochemical; details: for log kIAM: logarithm of retention factor, mobile phase pH 7.4; for kIAM: retention factor, phosphate buffer pH 7.4/acetonitrile 80:20
[8] = Rf value from NP plate impregnated with 2 mg/mL BSA solution, mobile phase pH 7.4
Wherever a/b/n code is given: key: (-1) - acids; (0) - neutrals; (1) - bases.

T1 sequence (P02769 25-607): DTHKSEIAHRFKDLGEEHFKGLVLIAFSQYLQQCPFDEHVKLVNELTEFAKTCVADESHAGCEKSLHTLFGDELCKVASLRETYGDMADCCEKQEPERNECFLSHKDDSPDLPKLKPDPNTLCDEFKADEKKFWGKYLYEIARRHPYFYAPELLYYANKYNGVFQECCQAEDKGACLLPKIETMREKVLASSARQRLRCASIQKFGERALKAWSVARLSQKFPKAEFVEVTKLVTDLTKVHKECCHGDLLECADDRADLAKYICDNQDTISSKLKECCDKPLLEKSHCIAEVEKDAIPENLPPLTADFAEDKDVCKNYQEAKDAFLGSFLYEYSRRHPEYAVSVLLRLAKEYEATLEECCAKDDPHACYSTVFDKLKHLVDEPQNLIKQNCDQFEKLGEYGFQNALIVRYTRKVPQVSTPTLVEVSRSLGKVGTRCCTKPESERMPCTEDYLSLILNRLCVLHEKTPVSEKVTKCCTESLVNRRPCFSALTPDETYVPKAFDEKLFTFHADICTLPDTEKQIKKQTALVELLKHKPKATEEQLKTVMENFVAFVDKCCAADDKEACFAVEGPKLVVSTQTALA

| Molecule | CRP [1] | NP/C [2] | NP [2, 8] | a/b/n code [3] | log kHSA [4] | kHSA [4] | CNP [5] | RP/C [6] | RP [6] | log kIAM [7] | kIAM [7] | NP ([2]; pH 7.4) |
| --- | --- | --- | --- | --- | --- | --- | --- | --- | --- | --- | --- | --- |
| CN(C)CCC=C1c2ccccc2CCc2ccccc21 [amitriptyline] | 0.67 | 0.97 | 0.31 | 1 | 0.77 | 5.87 | 0.32 | 0.94 | 0.63 |  |  |  |
| CCC1(c2ccccc2)C(=O)NCNC1=O [primidone] | 0.93 | 1.03 | 0.93 | 0 | -0.66 | 0.22 | 0.90 | 1.04 | 0.97 | 0.31 | 2.02 |  |
| CCN(CC)CCCC(C)Nc1ccnc2cc(Cl)ccc12 (stereo not drawn) [chloroquine] |  |  |  |  |  |  |  |  |  | 0.49 |  |  |
| CCC(C)n1ncn(-c2ccc(N3CCN(c4ccc(OCC5COC(Cn6cncn6)(c6ccc(Cl)cc6Cl)O5)cc4)CC3)cc2)c1=O (stereo not drawn) [itraconazole] | 0.86 | 1.01 | 0.97 | 0 | 0.98 | 9.65 | 0.96 | 0.98 | 0.84 | 0.79 | 6.15 |  |
| CC[C@@H](CO)NCCN[C@@H](CC)CO [ethambutol] | 0.97 | 1.11 | 0.21 | 1 | 0.24 | 1.73 | 0.19 | 0.98 | 0.95 | 0.34 | 2.18 |  |
| NC(=O)N1c2ccccc2CC(=O)c2ccccc21 [oxcarbamazepine] | 0.91 |  | 0.90 |  | -0.40 | 0.40 | 0.91 |  | 0.91 | 0.35 | 2.26 |  |
| CO[C@H]1/C=C/O[C@@]2(C)Oc3c(C)c(O)c4c(O)c(c(/C=N/N5CCN(C)CC5)c(O)c4c3C2=O)NC(=O)/C(C)=C\C=C\[C@H](C)[C@H](O)[C@@H](C)[C@@H](O)[C@@H](C)[C@H](OC(C)=O)[C@@H]1C [rifampicin] | 0.95 |  | 0.77 |  | -1.53 | 0.03 | 0.73 |  | 0.94 | 0.92 | 8.37 |  |
| CN(C)CCC=C1c2ccccc2COc2ccccc21 [doxepin] |  | 1.03 | 0.31 | 1 | 0.63 | 4.25 | 0.30 | 0.93 | 0.54 | 0.45 | 2.81 |  |
| CC(N)C12CC3CC(CC(C3)C1)C2 (stereo not drawn) [rimantadine] | 0.95 | 1.00 | 0.92 | 1 | -0.80 | 0.16 | 0.92 | 1.00 | 0.95 | 0.28 | 1.91 |  |
| CNCC[C@H](Oc1cccc2ccccc12)c1cccs1 [duloxetine] |  |  |  |  | 0.91 | 8.16 |  |  |  | 0.45 | 2.84 |  |
| CC1COc2c(N3CCN(C)CC3)c(F)cc3c(=O)c(C(=O)O)cn1c23 (stereo not drawn) [ofloxacin] |  |  |  |  |  |  | 0.24 |  |  | 0.49 | 3.07 | 0.23 |
| NCC1(CC(=O)O)CCCCC1 [gabapentin] |  |  |  |  | -0.84 | 0.15 |  |  |  | 0.23 | 1.70 |  |
| C=C[C@H]1C[N@@]2CC[C@H]1C[C@H]2[C@H](O)c1ccnc2ccc(OC)cc12 [quinine] |  |  |  |  |  |  |  |  |  | 0.49 | 3.06 |  |
| CC(=O)Nc1nnc(S(N)(=O)=O)s1 [acetazolamid] | 0.97 |  |  |  | -0.13 | 0.74 |  |  | 0.96 |  |  |  |
| CC(=O)CC(c1ccccc1)c1c(O)c2ccccc2oc1=O (stereo not drawn) [warfarin] |  |  |  |  |  |  |  |  |  | 0.44 | 2.76 |  |
| CN1CCC[C@@H]1Cc1c[nH]c2ccc(CCS(=O)(=O)c3ccccc3)cc12 [eletriptan] |  |  |  | 1 | 0.58 | 3.78 |  |  |  | 0.55 | 3.57 |  |
| CCCCN1CCCCC1C(=O)Nc1c(C)cccc1C (stereo not drawn) [bupivacaine] | 0.74 | 1.00 | 0.67 | 0 | 0.07 | 1.18 | 0.67 | 1.01 | 0.75 |  |  |  |
| Nc1cc(N2CCCCC2)nc(N)[n+]1[O-] [minoxidil] |  |  |  |  |  |  |  |  |  | 0.29 | 1.96 |  |
| CN(C)CCCC1(c2ccc(F)cc2)OCc2cc(C#N)ccc21 (stereo not drawn) [citalopram] |  |  |  |  |  |  |  |  |  | 0.50 | 3.14 |  |
| CN(C)CCCN1c2ccccc2CCc2ccc(Cl)cc21 [clomipramine] |  |  |  |  |  |  |  |  |  |  | 3.05 |  |
| CCCc1cc(=O)[nH]c(=S)[nH]1 [propylthiouracil] |  |  |  |  |  |  |  |  |  | 0.18 | 1.51 |  |
| NS(=O)(=O)c1cc2c(cc1Cl)NCNS2(=O)=O [hydrochlorotiazide] |  |  |  |  |  |  |  |  |  | 0.30 | 2.01 |  |
| COc1cc(Cc2cnc(N)nc2N)cc(OC)c1OC [trimethoprim] |  |  | 0.59 |  |  |  | 0.57 |  |  |  |  |  |
| CCC[C@@H]1C[C@@H](C(=O)N[C@@H]([C@H]2O[C@H](SC)[C@H](O)[C@@H](O)[C@H]2O)[C@@H](C)O)N(C)C1 [lincomycin] |  | 1.00 | 0.91 | 1 | -0.08 | 0.82 | 0.91 |  |  | 0.59 | 3.89 |  |
| CC(C)(C)NC[C@H](O)COc1nsnc1N1CCOCC1 [timolol] | 0.97 |  | 0.32 |  |  | 0.13 | 0.34 |  | 0.97 |  | 2.88 |  |
| gentamycin |  |  |  | 1 |  |  | 0.96 |  |  | 0.63 | 4.25 |  |
| Nc1ccc(O)c(C(=O)O)c1 [mesalazine] | 0.99 |  |  | -1 | -0.73 | 0.18 |  | 0.98 | 0.97 | 0.11 | 1.28 |  |
| CC(C)C[C@H](CN)CC(=O)O [pregabalin] |  |  |  |  | -0.87 | 0.14 |  |  |  | 0.22 | 1.65 |  |
| COCCCC/C(=N\OCCN)c1ccc(C(F)(F)F)cc1 [fluvoxamine] |  |  |  |  |  |  | 0.34 |  |  |  |  |  |
| CCS(=O)(=O)CCn1c([N+](=O)[O-])cnc1C [tinidazole] |  |  | 0.88 |  | -0.92 | 0.12 | 0.89 |  |  | 0.30 | 2.00 |  |
